# Reference: article PMC4861903, “Synthesis of a highly water-soluble acacetin prodrug for treating experimental atrial fibrillation in beagle dogs” (Scientific Reports, 2016)
# What was measured:
# QTc interval = assay: ECG QTc interval in anesthetized beagle dogs; assay type: in vivo; details: for QTc interval after drug administration: at 35 min after administration, P = NS
# Experimental: QTc (corrected QT) interval of ECG was analyzed in anesthetized beagle dogs before and at 35 min after drug administration. QTc interval was not altered (P = NS, before vs. after drug administration) in vehicle animals (n = 5, 273.6 ± 2.6 ms vs. 276.1 ± 4.2 ms) and animals treated with 3 mg/kg (n = 6, 279.5 ± 2.5 ms vs. 282.3 ± 1.7 ms), 6 mg/kg (n = 8, 276.9 ± 2.4 ms vs. 279.1 ± 2.3 ms), or 12 mg/kg (n = 7, 274.1 ± 3.5 ms vs. 278.7 ± 2.9 ms) acacetin prodrug. […]
# (§1) China) were anesthetized with pentobarbital (40 mg/kg, i.v.), supplemented as necessary during the experiment. The animal was kept on an operation table maintained at 37°C, intubated and ventilated with room air. The left femoral vein was cannulated to maintain fluid balance, anesthesia, and test articles. Lead II electrocardiogram (ECG) was continuously monitored with using a digital recording system (RM6240, Chengdu Instruments, China)
# (§2) An action potential (MAP) recording- and pacing-catheter (Boston Scientific Ltd) was introduced to the right atrium through right jugular vein, and an electrical pacing catheter was introduced to left ventricle via […] for ventricular pacing (when necessary).
# Bilateral cervical vagal nerves were isolated and bipolar electrodes were placed to stimulate efferent vagal nerves with 15 Hz, 0.2 ms duration voltage step (80-100% threshold) to induce a 50% reduction of heart rate. Ventricular pacing was performed with 2-ms voltage pulses (2.5 Hz, 150% diastolic threshold) when vagal nerves were continuously stimulated. […]
# (§3) Instruments, China). […]
# [1] = system: experimental AF induced by vagal nerve stimulation and burst atrial pacing; assay: Vagal nerve stimulation-induced AF in beagle dogs; assay type: in vivo; details: for AF duration in animals with effective AF termination: vehicle 30 min
# Experimental: The anti-AF effect of acacetin prodrug was investigated in AF model (with AF duration of 30 min), which was established in beagle dogs with modified procedure as described previously. After three-repeats of stable AF (30 min), drug treatment was applied on 4th repeat (Fig. 5A). Acacetin prodrug dissolved in 5% glucose was administrated intravenously after 1 min of onset of AF induction. A bolus of one third dosage was infused within 2 min, then two third of the dosage (3, 6, and 12 mg/kg) was continuously infused for 18 min. The AF disappeared within 30 min before stopping bilateral vagal nerve stimulation was considered to be effective termination of AF (Fig. 5B). Blood samples were collected at different time points (5, 10, 20, 30, 45 and 60 min) during the experiment to determine the plasma acacetin concentrations. Figure 5C illustrates the termination rate of AF by different doses of acacetin prodrug. […] In addition, AF induction was repeated at 40 min after discontinuous prodrug infusion. AF was terminated at 25.3 ±1.8 min after re-induction (P < 0.01 vs. vehicle) in these animals (n = 15) with drug treatment, but not in animals treated with 5% glucose vehicle (30 min duration). However, the duration of AF was longer than during the initial drug administration (25.3 ± 1.8 min vs.17.1 ± 1.3 min, P < 0.01).
# Experimental AF was induced by vagal nerve stimulation in beagle dogs with modified procedure as described previously. Briefly, AF was generated by a 10-s burst atrial pacing with a 4-fold diastolic threshold potential (60-ms interval) after 30 s vagal nerve stimulation. If AF persisted for 30 min, it was terminated by stopping vagal nerve stimulation. The stable AF lasting for 30 min was repeated for three times (20 min interval), drug test (vehicle or different doses of acacetin prodrug) was then performed. A shortened duration of AF during the continuous vagal nerve stimulation was considered to be effective termination of AF for drug treatment. […]
# as §1, §2
# Bilateral cervical vagal nerves were isolated and bipolar electrodes were placed to stimulate efferent vagal nerves with 15 Hz, 0.2 ms duration voltage step (80-100% threshold) to induce a 50% reduction of heart rate. Ventricular pacing was performed with 2-ms voltage pulses (2.5 Hz, 150% diastolic threshold) when vagal nerves were continuously stimulated. Experimental atrial fibrillation (AF) model is established in beagle dogs with modified procedure as described previously.8-10 Briefly, AF was generated by a 10-s burst atrial pacing with a 4-fold diastolic threshold potential (60 ms interval) after 30 s vagal nerves stimulation. If AF persisted for 30 min, AF was terminated by stopping vagal nerve stimulation. After stable persistent AF lasing for 30 min was repeated for three times (20 min interval), drug test (vehicle or different doses of phosphate sodium salt prodrug of acacetin) was performed. A shortened AF duration during the continuous vagal stimulation was considered to be effective termination of AF. All the biological signals were recorded using the digital recording system (RM6240, Chengdu […]
# as §3
# Sixty ICR mice (male, 30; female, 30) were stratified […]
compound,measurement,setting,value
"COc1ccc(-c2cc(=O)c3c(O)cc(OP(=O)([O-])[O-])cc3o2)cc1.[Na+].[Na+] [acacetin prodrug, phosphate sodium salt of acacetin]",QTc interval after drug administration,"QTc interval; 3 mg/kg i.v., n = 6, before 279.5 ± 2.5 ms",282.3 ± 1.7 ms
same,QTc interval after drug administration,"QTc interval; 6 mg/kg i.v., n = 8, before 276.9 ± 2.4 ms",279.1 ± 2.3 ms
same,QTc interval after drug administration,"QTc interval; 12 mg/kg i.v., n = 7, before 274.1 ± 3.5 ms",278.7 ± 2.9 ms
same,effect on QT interval,"QTc interval; 3, 6 and 12 mg/kg i.v., beagle dogs",no effect
same,termination rate of AF,"[1]; 3 mg/kg i.v. (1/3 bolus in 2 min, 2/3 infused 18 min), 3 of 6 dogs, vehicle 0%",50%
same,termination rate of AF,"[1]; 6 mg/kg i.v. (1/3 bolus in 2 min, 2/3 infused 18 min), 6 of 8 dogs, P < 0.05 vs. vehicle",75%
same,AF duration in animals with effective AF termination,[1]; 6 mg/kg i.v.,17.2 ± 2.3 min
same,termination rate of AF,"[1]; 12 mg/kg i.v. (1/3 bolus in 2 min, 2/3 infused 18 min), 5 of 7 dogs, P < 0.05 vs. vehicle",71.4%
same,AF duration in animals with effective AF termination,[1]; 12 mg/kg i.v.,15.5 ± 2.7 min
same,"AF terminated at, after re-induction","[1]; AF induction repeated at 40 min after discontinuous prodrug infusion, all doses pooled, n = 15, P < 0.01 vs. vehicle (30 min)",25.3 ± 1.8 min
same,duration of AF during the initial drug administration,"[1]; all doses pooled, animals with drug treatment",17.1 ± 1.3 min
